Here are results for 30 molecules from patent publication US20240409557A1, “5,6-FUSED AND 6,6-FUSED BICYCLIC ALCOHOLS AND ETHERS AND COMPOSITIONS FOR USE AS 15-PROSTAGLANDIN DEHYDROGENASE MODULATORS” (AMGEN INC., priority 2023, published 2024).

The target of one test is T1, 15-PGDH in A549 cells (Homo sapiens, UniProt P15428).
T1 construct: endogenous in cells; host or cells: A549
T1 sequence (P15428 1-266): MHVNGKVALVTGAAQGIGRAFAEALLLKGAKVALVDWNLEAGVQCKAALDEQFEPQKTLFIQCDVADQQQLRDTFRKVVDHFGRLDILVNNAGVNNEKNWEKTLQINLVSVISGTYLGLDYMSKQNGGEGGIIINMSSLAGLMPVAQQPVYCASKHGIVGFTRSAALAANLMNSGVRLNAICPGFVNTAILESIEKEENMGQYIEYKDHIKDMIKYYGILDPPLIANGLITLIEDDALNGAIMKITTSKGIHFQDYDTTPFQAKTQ
The experiment in a line: A549 cellular 15-PGDH assay (PGE2 accumulation, HTRF). The class given is cell-based. The note with it: interleukin-stimulated, inhibitor 24 hrs, PGE2 by competitive HTRF, read-out: A549 Cell Assay IC50. The procedure, abridged:
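Supernatant PGE2 was quantified by competitive HTRF, in which sample PGE2 blocks FRET between a europium cryptate-labelled antibody and labelled PGE2. It came from A549 epithelial cells induced with IL-13. IC50s were calculated from the inversely proportional signal.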
A general note: TR-FRET usually uses a lanthanide donor and a delayed reading to cut background.

In test [1] the target is T2, human recombinant 15-PGDH (Homo sapiens, UniProt P15428).
T2 sequence (P15428 1-266): T1 sequence (P15428 1-266)
The experiment in a line: Recombinant 15-PGDH enzymatic inhibition assay (PGDH-Lumi, NADH signal). The class given is biochemical. The following applies: recombinant 15-PGDH; 15 min pre-incubation, 60 min reaction with PGE2 and NAD+, NADH signal. The procedure, abridged:
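Buffer 50 mM Tris pH 7.5 with 0.01% Tween-20 and […]; compound, 22 two-fold dilutions, pre-incubated with enzyme 15 min before substrate.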

For orientation: IC50 means the concentration that inhibits the measured activity by half. `Cn1cc2cc(-c3ccc4cc(C5(O)CC6(CCCC6)C5)sc4n3)cnc2n1` [Compound C53, 2-(6-(2-methyl-2H-pyrazolo[3,4-b]pyridin-5-yl)thieno[2,3-b]pyridin-2-yl)spiro[3.4]octan-2-ol]: the results for the IC50 (at 15-PGDH in A549 cells; in test [1]) were 0.0361 nM and 0.363 nM, respectively.

As for `Cn1cc2cc(-c3ccc4c(Cl)c([C@]5(O)C[C@@H](C(F)(F)F)C5)sc4n3)cnc2n1` [Compound C75C, cis-1-(3-chloro-6-(2-methyl-2H-pyrazolo[3,4-b]pyridin-5-yl)thieno[2,3-b]pyridin-2-yl)-3-(trifluoromethyl)cyclobutanol], the IC50 worked out at 1.07 nM at 15-PGDH in A549 cells and 0.707 nM in test [1].

`CO[C@H]1C[C@@H]([C@H](O)c2cc3ccc(-c4cnc5nn(C)cc5c4)nc3s2)C1` (single isomer, unassigned) [Compound B88SC]: the 50% inhibitory concentration (IC50) at 15-PGDH in A549 cells came out at 0.522 nM; in test [1], 10.1 nM.

`CCC(O)c1cc2ccc(-c3cnc4nn(C)cc4c3)nc2s1` (stereo not drawn) [Compound B22, 1-(6-(2-methyl-2H-pyrazolo[3,4-b]pyridin-5-yl)thieno[2,3-b]pyridin-2-yl)-1-propanol]: the figures for the IC50 (on 15-PGDH in A549 cells; in test [1]) were 1.29 nM and 0.513 nM, respectively.

Regarding `OC1(c2cc3ccc(-c4cnc5[nH]nnc5c4)nc3s2)CC(F)(F)C1` [Compound C55], the 50% inhibitory concentration (IC50) on 15-PGDH in A549 cells was 1.59 nM; in test [1], 0.821 nM.

As for `Cn1cc2cc(-c3ccc4nc([C@]5(O)C[C@@H](C(F)(F)F)C5)sc4n3)cnc2n1` [Compound C74C, cis-1-(5-(2-methyl-2H-pyrazolo[3,4-b]pyridin-5-yl)[1,3]thiazolo[5,4-b]pyridin-2-yl)-3-(trifluoromethyl)cyclobutanol], the values for the IC50 (at 15-PGDH in A549 cells; in test [1]) were 0.192 nM and 0.458 nM, respectively.

On to `Cc1nc2ncc(-c3ccc4cc(C5(O)CC(F)(F)C5)sc4n3)cc2o1` [Compound C34, 3,3-difluoro-1-(6-(2-methyl[1,3]oxazolo[4,5-b]pyridin-6-yl)thieno[2,3-b]pyridin-2-yl)cyclobutanol], for which the figures for the IC50 (on 15-PGDH in A549 cells; in test [1]) were 1.35 nM and 0.78 nM, respectively.

For the molecule `Nc1ncc(-c2ccc3cc(C4(O)CC(F)(F)C4)sc3n2)cn1` [Compound C38, 1-(6-(2-amino-5-pyrimidinyl)thieno[2,3-b]pyridin-2-yl)-3,3-difluorocyclobutanol], the IC50 was determined as 3.75 nM on 15-PGDH in A549 cells and 4.59 nM in test [1].

In the case of `Cn1cc2cc(-c3ccc4cc(C(O)CCC(F)(F)F)sc4c3)cnc2n1` (stereo not drawn) [Compound B60, 4,4,4-trifluoro-1-(6-(2-methyl-2H-pyrazolo[3,4-b]pyridin-5-yl)-1-benzothiophen-2-y1)-1-butanol], the IC50 on 15-PGDH in A549 cells stood at 9.36 nM; in test [1] it was 3.03 nM.

In the case of `Cn1cc(-c2ncc3cc([C@]4(O)C[C@@H](C(F)(F)F)C4)sc3n2)cn1` [Compound C120C, cis-1-(2-(1-methyl-1H-pyrazol-4-yl)thieno[2,3-d]pyrimidin-6-yl)-3-(trifluoromethyl)cyclobutanol], the IC50 at 15-PGDH in A549 cells is 66.7 nM; in test [1], 101 nM.

For the molecule `Cn1ccc2cc(-c3ccc4cc([C@H](O)C5CC(F)(F)C5)sc4n3)ccc2c1=O` (single isomer, unassigned) [Compound B50R], the IC50 at 15-PGDH in A549 cells came out at 0.52 nM; in test [1], 0.343 nM.

For the molecule `Cn1cc2cc(-c3ccc4cc([C@]5(O)C[C@@H](C(F)F)C5)ccc4n3)cnc2n1` [Compound D6C, cis-3-(difluoromethyl)-1-(2-(2-methyl-2H-pyrazolo[3,4-b]pyridin-5-yl)-6-quinolinyl)cyclobutanol], the IC50 turned out to be 354 nM on 15-PGDH in A549 cells and 1030 nM in test [1].

For the molecule `[2H]C(O)(c1cc2ccc(-c3cnc4nn(C)cc4c3)nc2s1)C1CCOCC1` (stereo not drawn) [Compound B66, (6-(2-methyl-2H-pyrazolo[3,4-b]pyridin-5-yl)thieno[2,3-b]pyridin-2-yl)(tetrahydro-2H-pyran-4-yl)methan-d-ol], the IC50 on 15-PGDH in A549 cells was 0.829 nM; in test [1], 0.948 nM.

Take `Cn1cc2cc(-c3ccc4cc(C5(O)CC6(CC(F)(F)C6)C5)sc4n3)cnc2n1` [Compound C27, 6,6-difluoro-2-(6-(2-methyl-2H-pyrazolo[3,4-b]pyridin-5-yl)thieno[2,3-b]pyridin-2-yl)spiro[3.3]heptan-2-ol]: the IC50 at 15-PGDH in A549 cells was 0.0582 nM; in test [1], 0.379 nM.

As for `Cn1cc2cc(-c3ccc4cc(C5(O)CCC(F)(F)CC5)sc4n3)cnc2n1` [Compound C15, 4,4-difluoro-1-(6-(2-methyl-2H-pyrazolo[3,4-b]pyridin-5-yl)thieno[2,3-b]pyridin-2-yl)cyclohexanol], the values for the IC50 (on 15-PGDH in A549 cells; in test [1]) were 12.8 nM and 2.85 nM, respectively.

For `Cn1cc2cc(-c3ccc4cc(C(O)C5CC5)sc4n3)cnc2n1` (stereo not drawn) [Compound B16, cyclopropyl(6-(2-methyl-2H-pyrazolo[3,4-b]pyridin-5-yl)thieno[2,3-b]pyridin-2-yl)methanol], the figures for the IC50 (on 15-PGDH in A549 cells; in test [1]) were 1.19 nM and 0.471 nM, respectively.

Consider `Cn1cc2cc(-c3cnc4sc([C@@H](O)C5CC(F)(F)C5)cc4c3)cnc2n1` (single isomer, unassigned) [Compound B77S], for which the figures for the IC50 (on 15-PGDH in A549 cells; in test [1]) were 11.4 nM and 154 nM, respectively.

For the molecule `Cc1c([C@H](O)C2CC(F)(F)C2)sc2nc(-c3cnc4nn(C)cc4c3)ccc12` (single isomer, unassigned) [Compound B83R], the IC50 on 15-PGDH in A549 cells was 0.0103 nM; in test [1] it was 0.296 nM.

Take `Cn1cc2cc(-c3ccc4ccc([C@]5(O)C[C@@H](C(F)F)C5)cc4n3)cnc2n1` [Compound D5C, cis-3-(difluoromethyl)-1-(2-(2-methyl-2H-pyrazolo[3,4-b]pyridin-5-yl)-7-quinolinyl)cyclobutanol]: the IC50 was 253 nM at 15-PGDH in A549 cells and 198 nM in test [1].

As for `CO[C@@H]1CC[C@]1(O)c1cc2ccc(-c3cnc4nn(C)cc4c3)nc2s1` (single isomer, unassigned) [Compound C70RR], the results for the IC50 (at 15-PGDH in A549 cells; in test [1]) were 117 nM and 403 nM, respectively.

With `[2H][C@@](O)(c1cc2ccc(-c3cnc4nn(C)cc4c3)nc2s1)C1CC(F)(F)C1` (single isomer, unassigned) [Compound B79S], the values for the half-inhibitory concentration (IC50) (at 15-PGDH in A549 cells; in test [1]) were 0.37 nM and 0.706 nM, respectively.

`Cn1nnc2cc(-c3ccc4cc([C@]5(O)C[C@@H](OC(F)(F)F)C5)sc4n3)cnc21` [Compound C101C, cis-1-(6-(3-methyl-3H-[1,2,3]triazolo[4,5-b]pyridin-6-yl)thieno[2,3-b]pyridin-2-yl)-3-(trifluoromethoxy)cyclobutanol]: the IC50 at 15-PGDH in A549 cells amounted to 0.847 nM; in test [1], 0.496 nM.

For `CNc1ncc(-c2ccc3cc(C4(O)CC(F)(F)C4)sc3n2)cn1` [Compound C43, 3,3-difluoro-1-(6-(2-(methylamino)-5-pyrimidinyl)thieno[2,3-b]pyridin-2-yl)cyclobutanol], the figures for the IC50 (on 15-PGDH in A549 cells; in test [1]) were 6.34 nM and 5.3 nM, respectively.

For `Cn1nnc2cc(-c3ncc4cc([C@]5(O)C[C@@](C)(C#N)C5)sc4n3)cnc21` (single isomer, unassigned) [Compound C98C, cis-3-hydroxy-1-methyl-3-(2-(3-methyl-3H-[1,2,3]triazolo[4,5-b]pyridin-6-yl)thieno[2,3-d]pyrimidin-6-yl)cyclobutanecarbonitrile], the IC50 at 15-PGDH in A549 cells turned out to be 18.7 nM; in test [1], 8.69 nM.

In the case of `Cc1c([C@@H](O)C2CCOCC2)sc2nc(-c3cnc4c(c3)nnn4C)ccc12` (single isomer, unassigned) [Compound B89S], the IC50 is 375 nM on 15-PGDH in A549 cells and 922 nM in test [1].

Regarding `Cn1nnc2cc(-c3ncc4cc([C@]5(O)C[C@@H](OC(F)(F)F)C5)sc4n3)cnc21` [Compound C111C, cis-1-(2-(3-methyl-3H-[1,2,3]triazolo[4,5-b]pyridin-6-yl)thieno[2,3-d]pyrimidin-6-yl)-3-(trifluoromethoxy)cyclobutanol], the values for the IC50 (at 15-PGDH in A549 cells; in test [1]) were 3.95 nM and 1.09 nM, respectively.

For `Cn1nnc2cc(-c3ccc4cc([C@]5(O)C[C@@](C)(C#N)C5)sc4n3)cnc21` (single isomer, unassigned) [Compound C104C, cis-3-hydroxy-1-methyl-3-(6-(3-methyl-3H-[1,2,3]triazolo[4,5-b]pyridin-6-yl)thieno[2,3-b]pyridin-2-yl)cyclobutanecarbonitrile], the values for the IC50 (at 15-PGDH in A549 cells; in test [1]) were 11.3 nM and 3.88 nM, respectively.

Turning to `Cn1cc2cc(-c3ncc4cc([C@H](O)C5CC(F)(F)C5)sc4n3)cnc2n1` (single isomer, unassigned) [Compound B75R], the values for the IC50 (on 15-PGDH in A549 cells; in test [1]) were 0.0162 nM and 0.382 nM, respectively.

As for `Cn1cc2cc(-c3ccc4c(N)c([C@H](O)C5CC(F)(F)C5)sc4n3)cnc2n1` (single isomer, unassigned) [Compound B95R], the IC50 is 1.64 nM at 15-PGDH in A549 cells and 1.21 nM in test [1].

Turning to `Cn1nnc2cc(-c3ccc4cc([C@]5(O)C[C@](C)(C#N)C5)sc4n3)cnc21` (single isomer, unassigned) [Compound C104T, trans-3-hydroxy-1-methyl-3-(6-(3-methyl-3H-[1,2,3]triazolo[4,5-b]pyridin-6-yl)thieno[2,3-b]pyridin-2-yl)cyclobutanecarbonitrile], the IC50 on 15-PGDH in A549 cells was determined as 1.44 nM; in test [1], 0.515 nM.
